Experimental data from patent US7968572B2, “Nitrogen-containing heterocyclic compound and pharmaceutical application thereof” (Ono Pharmaceuticals Co., Ltd., priority 2005, dated 2011).
pIC50: −log10 of the molar value.

How the values were obtained:
[1] = target: T1, recombinant human p38α MAP kinase (Homo sapiens, UniProt Q16539); assay: Study on p38α MAP kinase inhibitory activity (ATF2 phosphorylation, Alpha Screen); assay type: biochemical; details: biotinylated ATF2 substrate, 30° C. for 30 minutes
T1 construct: purchased Upstate Biotechnology #14-251
T1 sequence (Q16539 whole entry): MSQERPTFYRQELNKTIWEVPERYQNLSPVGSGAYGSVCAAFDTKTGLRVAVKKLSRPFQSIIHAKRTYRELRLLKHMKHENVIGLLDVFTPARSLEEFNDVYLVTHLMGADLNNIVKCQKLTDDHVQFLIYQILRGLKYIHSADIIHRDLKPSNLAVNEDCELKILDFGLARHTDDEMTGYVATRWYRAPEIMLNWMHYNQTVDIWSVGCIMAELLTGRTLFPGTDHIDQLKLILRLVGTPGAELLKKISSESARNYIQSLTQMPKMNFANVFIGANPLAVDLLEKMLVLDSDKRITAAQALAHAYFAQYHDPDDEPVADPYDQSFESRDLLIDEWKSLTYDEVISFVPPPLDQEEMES
Method: Study on p38α MAP Kinase Inhibitory Activity
Using activating transcription factor-2 (hereinafter abbreviated to ATF2) which is a substrate for p38α MAP kinase, the inhibitory action of the compounds of the present invention was investigated on the phosphorylation by a recombinant human p38α MAP kinase.
A kinase buffer (25 mM Tris-HCl (pH 7.5), 5 mM β-glycerophosphate, 2 mM dithiothreitol, 0.1 mM Na3VO4, 10 mM MgCl2) containing a recombinant human p38α MAP kinase (Upstate Biotechnology #14-251) was added to a 384-well plate (5 μL) (6.25 ng protein/well) for fluorescence measurement. After addition of a kinase buffer (5 μL) containing the compound of the present invention, the resulting mixture was incubated at room temperature for 20 minutes. A substrate mixture (5 μL) of biotinylated ATF2 of 5 μg/mL (Upstate Biotechnology #14-432), adenosine triphosphate (90 μmol/L) (Sigma #FL-AAS) and anti-phosphorylated ATF2 antibody (20-fold dilution) (Cell Signaling Technology #9221L) prepared separately was added thereto, and enzyme reaction was carried out at 30° C. for 30 minutes. After the reaction, Hepes buffer (5 μL) containing 0.25% BSA and 100 mM EDTA was added to stop the enzyme reaction. The amount of a complex of the phosphorylated ATF2 and anti-phosphorylated ATF2 antibody produced by the reaction was measured using an Alpha Screen™ Rabbit Detection kit (Packard #6760607).
The p38α MAP kinase inhibitory activity, which is the effect of the compound of the present invention, was calculated as an inhibition rate (%) according to the following equation: Inhibition rate (%)={(AC−AX)/(AC−AB)}×100
wherein AB is a measured value without addition of the enzyme;
AC is a measured value with addition of the enzyme in the absence of a test compound; and
AX is a measured value with addition of the enzyme in the presence of a test compound.
Inhibition rate of compounds with each concentration was calculated, and a value indicating 50% inhibition (IC50) was determined from the inhibition curve.

[2] = Evaluation of artificial lipid membrane binding using a Biacore S51 system; details: for Binding Level (RU): compound 50 μM, DOPA liposomes on Sensor Chip L1, 37° C., PBS/5% DMSO (pH 7.4 or pH 6.0); for Judgment: phospholipidosis inducing activity judged from artificial lipid membrane binding
Method: Evaluation of Artificial Lipid Membrane Binding using a Biacore S51 (Registered Trademark) System
Using an aspirator, 10 mM of 1,2-dioleoyl-sn-glycero-3-phosphate monosodium salt (hereinafter abbreviated to DOPA) chloroform solution was evaporated to be dryness, and 0.6 mL of PBS/5% dimethyl sulfoxide (hereinafter abbreviated to DMSO) was added thereto. After carrying out thorough suspension by vortex, freezing and thawing were repeated for 5 times. Liposomes were prepared using a liposome preparation device (manufactured by Avestin Inc.) and two syringes and diluted to be 0.5 mM with PBS/5% DMSO just before the immobilization.
Each compound having a final concentration in PBS/5% DMSO of 50 μM was prepared by adding 38 μL of 1× PBS to 2 μL of 10 mM DMSO solution and further adding 360 μL of 1× PBS/5% DMSO and measured.
All of the following analyses were carried out using the Biacore S51 (registered trademark) system, and the measuring conditions were set up by Biacore S51 Control Software.
The measuring temperature was set to be 37° C., and PBS/5% DMSO (pH 7.4 or pH 6.0) was used as the buffer. Series S Sensor Chip L1 was used as the sensor chip. DOPA was immobilized on one of the measuring spots on the sensor surface, and the central spot was used as the reference.
Immobilization of the liposomes was carried out for about 3 minutes at a flow rate of 10 μL/minute, and then each compound was added thereto at a flow rate of 30 μL/minute to measure the interaction. The measuring conditions are as shown in the following.
Assay buffer: PBS/5% DMSO (pH 7.4 or pH 6.0)
Measuring temperature: 37° C.
Sensor chip: Series S Sensor Chip L1
Flow rate: 10 μL/minute at the time of liposome immobilization, 30 μL/minute at the time of interaction measurement
Regeneration: 20 mM CHAPS (3-[(3-cholamidopropyl)dimethylammonio]-1-propanesulfonate), an isopropanol/50 mM aqueous solution of sodium hydroxide=40/60 (volume ratio) mixed solution (60 seconds)
The data treatment was carried out in accordance with the method of Abdiche et al. (Analytical Biochemistry, 328, 233-243 (2004)) using Biacore S51 Evaluation Software.
After correcting infinitesimal error of the concentration of DMSO contained in the sample solution, the value of binding response (RU) obtained by subtracting the value of reference was divided by the sample molecular weight. Additionally, since the thus obtained value is proportional to the capturing amount of liposome, it was divided by the capturing amount at the time of the cycling and multiplied by 10^6 to be used as the correction value (correction value=1000000×RU (compound to be tested)/molecular weight (compound to be tested) RU (liposome)).
By adding propranolol, amiodarone, desipramine, imipramine and procaine as controls, it was confirmed that variation of the binding response is within about 10 to 15%.
Compounds having a binding response value after correction of 100 or more were judged positive.

Row | Structure (SMILES) | pIC50 [1] | Binding Level (RU) [2] [RU] | Judgment [2]
1 | CC(C)(O)c1nc(-c2ccc(=O)n(-c3c(F)cccc3F)c2)c(-c2ccc(F)cc2F)o1 [Example 7 (21), 1-(2,6-difluorophenyl)-5-[5-(2,4-difluorophenyl)-2-(1-hydroxy-1-methylethyl)-1,3-oxazol-4-yl]-2(1H)-pyridinone] | 8.46 | 18.3 | Negative
2 | O=c1ccc(-c2nc(C(O)(CO)CO)oc2-c2ccc(F)cc2F)cn1-c1c(F)cccc1F [Example 7 (39), 1-(2,6-difluorophenyl)-5-{5-(2,4-difluorophenyl)-2-[1,2-dihydroxy-1-(hydroxymethyl)ethyl]-1,3-oxazol-4-yl}-2(1H)-pyridinone] | 8.55 | 11.1 | Negative
3 | C[C@@](O)(CO)c1nc(-c2ccc(=O)n(-c3c(F)cccc3F)c2)c(-c2ccc(F)cc2F)o1 [Example 167 (1), 1-(2,6-difluorophenyl)-5-{5-(2,4-difluorophenyl)-2-[(1R)-1,2-dihydroxy-1-methylethyl]-1,3-oxazol-4-yl}-2(1H)-pyridinone] | 8.36 | 19.6 | Negative
4 | C[C@](O)(CO)c1nc(-c2ccc(=O)n(-c3c(F)cccc3F)c2)c(-c2ccc(F)cc2F)o1 [Example 167 (2), 1-(2,6-difluorophenyl)-5-{5-(2,4-difluorophenyl)-2-[(1S)-1,2-dihydroxy-1-methylethyl]-1,3-oxazol-4-yl}-2(1H)-pyridinone] | 8.42 | 22.2 | Negative
5 | CC(C)(O)[C@H](O)c1nc(-c2ccc(F)cc2F)c(-c2ccc(=O)n(-c3c(F)cccc3F)c2)o1 [Example 206, 1-(2,6-difluorophenyl)-5-{4-(2,4-difluorophenyl)-2-[(1S)-1,2-dihydroxy-2-methylpropyl]-1,3-oxazol-5-yl}-2(1H)-pyridinone] | 8.48 | 14.7 | Negative
6 | CC(C)(O)[C@@H](O)c1nc(-c2ccc(F)cc2F)c(-c2ccc(=O)n(-c3c(F)cccc3F)c2)o1 [Example 207, 1-(2,6-difluorophenyl)-5-{4-(2,4-difluorophenyl)-2-[(1R)-1,2-dihydroxy-2-methylpropyl]-1,3-oxazol-5-yl}-2(1H)-pyridinone] | 8.43 | 12.8 | Negative
7 | C[C@@](O)(CO)c1nc(-c2ccc(F)cc2F)c(-c2ccc(=O)n(-c3c(F)cccc3F)c2)o1 [Example 211, 1-(2,6-difluorophenyl)-5-{4-(2,4-difluorophenyl)-2-[(1R)-1,2-dihydroxy-1-methylethyl]-1,3-oxazol-5-yl}-2(1H)-pyridinone] | 8.25 | 11.1 | Negative
8 | CC(C)(O)Cc1nc(-c2ccc(F)cc2F)c(-c2ccc(=O)n(-c3c(F)cccc3F)c2)o1 [Example 220, 1-(2,6-difluorophenyl)-5-[4-(2,4-difluorophenyl)-2-(2-hydroxy-2-methylpropyl)-1,3-oxazol-5-yl]-2(1H)-pyridinone] | 8.10 | 15.5 | Negative
9 | O=c1ccc(-c2oc(C(O)(CO)CO)nc2-c2ccc(F)cc2F)cn1-c1c(F)cccc1F [Example 223, 1-(2,6-difluorophenyl)-5-{4-(2,4-difluorophenyl)-2-[1,2-dihydroxy-1-(hydroxymethyl)ethyl]-1,3-oxazol-5-yl}-2(1H)-pyridinone] | 8.48 | 8.7 | Negative
10 | CC(C)(O)[C@@H](O)c1nc(-c2ccc(=O)n(-c3c(F)cccc3F)c2)c(-c2ccc(F)cc2F)o1 [Example 227 (1), 1-(2,6-difluorophenyl)-5-{5-(2,4-difluorophenyl)-2-[(1R)-1,2-dihydroxy-2-methylpropyl]-1,3-oxazol-4-yl}-2(1H)-pyridinone] | 8.32 | 21.0 | Negative
11 | CC(C)(O)[C@H](O)c1nc(-c2ccc(=O)n(-c3c(F)cccc3F)c2)c(-c2ccc(F)cc2F)o1 [Example 227, 1-(2,6-difluorophenyl)-5-{5-(2,4-difluorophenyl)-2-[(1S)-1,2-dihydroxy-2-methylpropyl]-1,3-oxazol-4-yl}-2(1H)-pyridinone] | 8.41 | 22.5 | Negative
